From ChEMBL document CHEMBL1134979, “A glucose-selective fluorescence sensor based on boronic acid-diol recognition” (Bioorg Med Chem Lett, 2002)

How the values were obtained:
[1] = Binding constant for complexation with Galactose by Fluorescence experiment
[2] = Binding constant for complexation with Fructose by Fluorescence experiment
[3] = Binding constant for complexation with glucose by Fluorescence experiment
[4] = Selectivity for Glucose to Fructose was determined by Fluorescence experiment
[5] = Fluorescence intensity change with respect to glucose binding (100 mM) was determined by Fluorescence experiment; PBA is not fluorescent.
[6] = Fluorescence intensity change with respect to glucose binding (100 mM) was determined by Fluorescence experiment; Increased by 5.5 fold
[7] = Fluorescence intensity change with respect to glucose binding (100 mM) was determined by Fluorescence experiment; Decreased by 0.4 fold
[8] = Fluorescence intensity change with respect to glucose binding (100 mM) was determined by Fluorescence experiment; Increased by 0.9 fold
[9] = Binding constant for complexation with Fructose by Fluorescence experiment; Fluorescence was too small for an accurate Ka determination.
[10] = Fluorescence intensity change with respect to glucose binding (100 mM) was determined by Fluorescence experiment; Decreased by 0.5 fold
[11] = Selectivity for Glucose to Fructose was determined by Fluorescence experiment; Fluorescence intensity change upon binding with fructose was too small for an accurate Ka determination.
[12] = Fluorescence intensity change with respect to glucose binding (100 mM) was determined by Fluorescence experiment; Increased by 7.0 fold
[13] = Fluorescence intensity change with respect to glucose binding (100 mM) was determined by Fluorescence experiment; Increased by 4.3 fold

SMILES: CN(Cc1ccccc1B(O)O)Cc1c2ccccc2c(CN(C)Cc2ccccc2B(O)O)c2ccccc12
- Ka [1]: 158 M⁻¹
- Ka [2]: 316 M⁻¹
- Ka [3]: 3980 M⁻¹
- Selectivity [4]: 13

SMILES: OB(O)c1ccccc1
- Ka [1]: 15 M⁻¹
- Ka [2]: 162 M⁻¹
- Ka [3]: 5 M⁻¹
- Selectivity [4]: 0.03
- Activity [5]: PBA is not fluorescent

SMILES: CN(Cc1ccccc1B(O)O)Cc1c2ccccc2c(CN(C)C(=O)c2ccccc2C(=O)N(C)Cc2c3ccccc3c(CN(C)Cc3ccccc3B(O)O)c3ccccc23)c2ccccc12
- Ka [1]: 33 M⁻¹
- Activity [6]: Increased by 5.5 fold
- Ka [2]: 283 M⁻¹
- Ka [3]: 178 M⁻¹
- Selectivity [4]: 0.6

SMILES: O=C1c2cccc3cc([N+](=O)[O-])cc(c23)C(=O)N1c1cccc(B(O)O)c1
- Activity [7]: Decreased by 0.4 fold
- Ka [2]: 476 M⁻¹
- Ka [3]: 38 M⁻¹
- Selectivity [4]: 0.08

SMILES: OB(O)c1ccc[n+](Cc2c3ccccc3c(C[n+]3cccc(B(O)O)c3)c3ccccc23)c1
- Activity [8]: Increased by 0.9 fold
- Ka [3]: 2510 M⁻¹

SMILES: CC1=C2C[C@H]3Cc4c(CO)oc(-c5ccc(B(O)O)cc5)c4C3=C2Oc2cc(B(O)O)ccc21
- Ka [9]: Fluorescence was too small for an accurate Ka determination
- Ka [1]: 100 M⁻¹
- Activity [10]: Decreased by 0.5 fold
- Ka [3]: 4000 M⁻¹
- Selectivity [11]: Fluorescence intensity change upon binding with fructose was too small for an accurate Ka determination

SMILES: CN(Cc1ccccc1B(O)O)Cc1c2ccccc2c(CN(C)C(=O)Cc2ccccc2CC(=O)N(C)Cc2c3ccccc3c(CN(C)Cc3ccccc3B(O)O)c3ccccc23)c2ccccc12
- Ka [1]: 30 M⁻¹
- Activity [12]: Increased by 7.0 fold
- Ka [2]: 34 M⁻¹
- Ka [3]: 1470 M⁻¹
- Selectivity [4]: 43

SMILES: CN(Cc1ccccc1B(O)O)Cc1c2ccccc2c(CN(C)C(=O)CCCCC(=O)N(C)Cc2c3ccccc3c(CN(C)Cc3ccccc3B(O)O)c3ccccc23)c2ccccc12
- Ka [1]: 105 M⁻¹
- Activity [13]: Increased by 4.3 fold
- Ka [2]: 77 M⁻¹
- Ka [3]: 638 M⁻¹
- Selectivity [4]: 8
